According to BindingDB's records for doi:10.3109/14756366.2011.645241 (Cairo University, 2013):

Tests used:
Cannabinoid receptor 1 = Cannabinoid receptor 1 (Homo sapiens, UniProt P21554); assay: Cannabinoid Receptor Binding Assay
Description: (§1) Membranes from HEK-293 cells transfected with the human recombinant CB1 receptor(Bmax=2.5pmol/mg protein) and human recombinant CB2 receptor (B max=4.7 pmol/mgprotein) were incubated with [3H]-CP-55,940 (0.14 nM / Kd = 0.18 nM and 0.084nM / Kd =0.31 nM respectively for CB1 and CB2 receptor) as the high affinity ligand and displaced with 10 μM WIN 55212-2 as the heterologous competitor for non specific binding (Ki values 9.2 nM and 2.1 nM respectively for CB1 and CB2 receptor). All compounds were tested following the procedure described by the manufacturer (Perkin Elmer, Italy). Displacement curves were generated by incubating drugs with [3H]-CP-55,940 for 90 minutes at 30 C. Ki values were calculated by applying the Cheng-Prusoff equation to the IC50 values (obtained by GraghPad) for the displacement of the bound radioligand by increasing concentrations of the testcompound. Data are means±SEM of at least n=3 experiments.

Cannabinoid receptor 2 = Cannabinoid receptor 2 (Homo sapiens, UniProt P34972); assay: Cannabinoid Receptor Binding Assay
Description: as §1

Sequence of Cannabinoid receptor 2 (P34972 whole entry): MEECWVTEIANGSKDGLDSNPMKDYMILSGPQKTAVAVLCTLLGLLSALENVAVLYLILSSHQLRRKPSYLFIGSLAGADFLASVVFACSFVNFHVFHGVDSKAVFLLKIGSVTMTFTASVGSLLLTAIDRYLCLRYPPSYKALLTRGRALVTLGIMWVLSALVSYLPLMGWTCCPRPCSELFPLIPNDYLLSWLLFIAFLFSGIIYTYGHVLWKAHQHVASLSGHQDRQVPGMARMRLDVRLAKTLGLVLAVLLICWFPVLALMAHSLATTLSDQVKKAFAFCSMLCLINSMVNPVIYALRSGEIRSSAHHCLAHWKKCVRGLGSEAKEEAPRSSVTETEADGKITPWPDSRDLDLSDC
Sequence of Cannabinoid receptor 1 (P21554 whole entry): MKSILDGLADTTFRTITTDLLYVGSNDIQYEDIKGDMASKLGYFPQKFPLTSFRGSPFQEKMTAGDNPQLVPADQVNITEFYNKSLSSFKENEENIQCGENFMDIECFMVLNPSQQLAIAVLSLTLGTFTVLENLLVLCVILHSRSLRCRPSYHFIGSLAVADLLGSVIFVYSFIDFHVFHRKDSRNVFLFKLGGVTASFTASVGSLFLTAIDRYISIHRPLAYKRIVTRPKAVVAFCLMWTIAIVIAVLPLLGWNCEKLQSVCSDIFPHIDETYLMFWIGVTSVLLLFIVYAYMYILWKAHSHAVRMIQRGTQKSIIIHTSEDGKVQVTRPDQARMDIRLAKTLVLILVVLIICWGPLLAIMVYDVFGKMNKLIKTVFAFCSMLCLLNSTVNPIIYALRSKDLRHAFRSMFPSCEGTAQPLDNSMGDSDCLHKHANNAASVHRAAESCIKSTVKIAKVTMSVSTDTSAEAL

O=C(/C=C/c1ccccc1)CCC(=O)NC(CO)(CO)CO [(E)-N-(1,3-Dihydroxy-2-(hydroxymethyl)propan-2-yl)-4-oxo-6-phenylhex-5-enamide (3b)]
> 10 µM: IC50 (Cannabinoid receptor 1) | Ki (Cannabinoid receptor 1) | IC50 (Cannabinoid receptor 2) | Ki (Cannabinoid receptor 2)

CCC(C)(O)NC(=O)CCC(=O)/C=C/c1ccc(C)cc1 (stereo not given) [(E)-N-(2-Hydroxybutan-2-yl)-4-oxo-6-p-tolylhex-5-enamide (3d)]
> 10 µM: IC50 (Cannabinoid receptor 1) | Ki (Cannabinoid receptor 1) | IC50 (Cannabinoid receptor 2) | Ki (Cannabinoid receptor 2)

CC(=O)Nc1ccc(OC(=O)CCC(=O)/C=C/c2ccccc2)cc1 [(E)-4-Acetamidophenyl 4-oxo-6-phenylhex-5-enoate (3l)]
> 10 µM: IC50 (Cannabinoid receptor 1) | Ki (Cannabinoid receptor 1) | IC50 (Cannabinoid receptor 2) | Ki (Cannabinoid receptor 2)

Cc1ccc(/C=C/C(=O)CCC(=O)NC(CO)(CO)CO)cc1 [(E)-N-(1,3-Dihydroxy-2-(hydroxymethylpropan-2-yl)-4-oxo-6-p-tolylhex-5-enamide (3e)]
> 10 µM: IC50 (Cannabinoid receptor 1) | Ki (Cannabinoid receptor 1) | IC50 (Cannabinoid receptor 2) | Ki (Cannabinoid receptor 2)

CCOC(=O)CNC(=O)CCC(=O)/C=C/c1ccc(OCc2ccccc2)cc1 [(E)-Ethyl 2-(6-(4-(benzyloxy)phenyl)-4-oxohex-5-enamido)acetate (3k)]
> 10 µM: IC50 (Cannabinoid receptor 1) | Ki (Cannabinoid receptor 1) | IC50 (Cannabinoid receptor 2) | Ki (Cannabinoid receptor 2)

CCC(C)(O)NC(=O)CCC(=O)/C=C/c1ccccc1 (stereo not given) [(E)-N-(2-Hydroxybutan-2-yl)-4-oxo-6-phenylhex-5-enamide (3a)]
> 10 µM: IC50 (Cannabinoid receptor 1) | Ki (Cannabinoid receptor 1) | IC50 (Cannabinoid receptor 2) | Ki (Cannabinoid receptor 2)

CCC(C)(O)NC(=O)CCC(=O)Nc1cccc2ccccc12 (stereo not given) [N-(2-Hydroxybutan-2-yl)-2-(4-naphthalen-1-ylamino)-4-oxobutanamide (5a)]
> 10 µM: IC50 (Cannabinoid receptor 1) | Ki (Cannabinoid receptor 1) | IC50 (Cannabinoid receptor 2) | Ki (Cannabinoid receptor 2)

CCOC(=O)CNC(=O)CCC(=O)/C=C/c1ccc(OC)c(OC)c1 [(E)-Ethyl 2-(6-(3,4-dimethoxyphenyl)-4-oxohex-5-enamido)acetate (3h)]
> 10 µM: IC50 (Cannabinoid receptor 1) | Ki (Cannabinoid receptor 1) | IC50 (Cannabinoid receptor 2) | Ki (Cannabinoid receptor 2)

CCOC(=O)CNC(=O)CCC(=O)Nc1cccc2ccccc12 [Ethyl 2-(4-(naphthalen-1-ylamino)-4-oxobutanamido)acetate (5b)]
> 10 µM: IC50 (Cannabinoid receptor 1) | Ki (Cannabinoid receptor 1) | IC50 (Cannabinoid receptor 2) | Ki (Cannabinoid receptor 2)

Cc1ccc(/C=C/C(=O)CCC(=O)Nc2ccc(O)cc2)cc1 [(E)-N-(4-Hydroxyphenyl)-4-oxo-6-p-tolylhex-5-enamide (3f)]
> 10 µM: IC50 (Cannabinoid receptor 1) | Ki (Cannabinoid receptor 1) | IC50 (Cannabinoid receptor 2) | Ki (Cannabinoid receptor 2)

CCC(C)(O)NC(=O)CCC(=O)/C=C/c1ccc(N(C)C)cc1 (stereo not given) [(E)-6-[4-(Dimethylamino)phenyl]-N-(2-hydroxybutan-2yl)-4-oxohex-5-enamide (3g)]
> 10 µM: IC50 (Cannabinoid receptor 1) | Ki (Cannabinoid receptor 1) | IC50 (Cannabinoid receptor 2) | Ki (Cannabinoid receptor 2)

CCC(C)(O)NC(=O)CCC(=O)/C=C/c1ccc(-c2ccccc2)cc1 (stereo not given) [(E)-6-(Biphenyl-4-yl)-N-(2-hydroxybutan-2-yl)-4-oxohex-5-enamide (3m)]
> 10 µM: IC50 (Cannabinoid receptor 1) | Ki (Cannabinoid receptor 1) | IC50 (Cannabinoid receptor 2) | Ki (Cannabinoid receptor 2)

CCC(C)(O)NC(=O)CCC(=O)/C=C/c1ccc(OCc2ccccc2)cc1 (stereo not given) [(E)-6-(4-(Benzyloxy)phenyl)-N-(2-hydroxybutan-2-yl)-4-oxohex-5-enamide (3j)]
> 10 µM: IC50 (Cannabinoid receptor 1) | Ki (Cannabinoid receptor 1) | IC50 (Cannabinoid receptor 2) | Ki (Cannabinoid receptor 2)

CC(=O)Nc1ccc(OC(=O)CCC(=O)Nc2cccc3ccccc23)cc1 [4-Acetamidophenyl 4-(naphthalen-1-ylamino)-4-oxobutanoate (5c)]
> 10 µM: IC50 (Cannabinoid receptor 1) | Ki (Cannabinoid receptor 1) | IC50 (Cannabinoid receptor 2) | Ki (Cannabinoid receptor 2)

CCC(C)(O)NC(=O)CCC(=O)/C=C/c1ccc(OC)c(OC)c1 (stereo not given) [(E)-6-(3,4-Dimethoxyphenyl)-N-(2-hydroxybutan-2-yl)-4-oxohex-5-enamide (3i)]
> 10 µM: IC50 (Cannabinoid receptor 1) | Ki (Cannabinoid receptor 1) | IC50 (Cannabinoid receptor 2) | Ki (Cannabinoid receptor 2)
